Data taken from patent EP4744682A1, “NOVEL CERIUM OXIDE NANOCOMPOSITE WITH ENHANCED BIOSTABILITY AND USE THEREOF” (Cenyx Biotech Inc., priority 2023, dated 2025).

Tested on: Hepa-1C1C7 hepatocyte cells
Assay: Survival of pyrogallol-treated hepatocytes, NRU assay
Type: cell-based
Conditions: 500µM pyrogallol alone; 3 hours; compared to pyrogallol-untreated control
Method: Inflammatory liver disease is a condition where the liver cannot perform its normal functions due to liver damage, metabolic disorders, and accumulation of toxic substances. The present inventors sought to verify the therapeutic effect of the cerium oxide nanocomplex of the present invention on inflammatory liver disease. To induce the disease, Hepa-1C1C7 hepatocyte cells were treated with 500µM pyrogallol, a cytotoxic substance, to induce acute inflammatory liver disease. Simultaneously, the cells were treated with the cerium oxide nanocomplex of the present invention at concentrations ranging from 0.01 to 5µM. Three hours after treatment, the survival rate of Hepa-lclc7 cells was measured using the NRU assay, a biochemical analysis method that measures cell survival by allowing the neutral red dye to be absorbed by living cells. […] When treated with the cerium oxide nanocomplex of the present invention, survival rates of 74.55% at a minimum concentration of 0.01 µM and approximately 93.19% at a maximum concentration of 5µM were observed. This represents an increase in survival rate of at least 47.81% to a maximum of 84.78% compared to cells treated with pyrogallol alone (FIG. 13).

With `Oc1cccc(O)c1O` [pyrogallol] the “survival rate of cells” value was “approximately 50.43%”.
